Laboratory results: patent US20260258035A1, “FIVE-MEMBERED AND SIX-MEMBERED NITROGEN-CONTAINING COMPOUND, AND INTERMEDIATE, PREPARATION METHOD AND USE THEREOF” (HANGZHOU SYNRX THERAPEUTICS BIOMEDICAL TECHNOLOGY CO., LTD., priority 2022, published 2026)
In brackets after ≈: the same amount, converted by molar mass. Where two headings read alike, the source gives them in different places.

Columns and labels:
[1] = Solubility assay (FaSSGF / FaSSIF); assay type: physicochemical; conditions: kinetic from dmso stock, 2 h at 25° C.
Procedure: 1). Preparation of Solutions:
The FaSSGF solution was prepared as follows: • a) preparation of FaSSGF buffer: dissolve 2.0 g of NaCl as the raw material in about 0.9 L of purified water; • b) adjustment of the pH of the buffer: adjust the pH of the buffer to 1.6 with 1N HCL, and replenish the buffer with purified water to the volume of 1 L; and • c) preparation of FaSSGF solution by addition of FaSSGF powder: add 0.06 g of the FaSSGF powder to about 0.5 L of the buffer, stir until the powder was completely dissolved, and make up for the volume (1 L) with the buffer.
The FaSSIF solution was prepared as follows: • a) preparation of FaSSIF buffer: dissolve 0.42 g of NaOH, 3.44 g of anhydrous NaH2PO4, and 6.19 g of NaCl as raw materials in about 0.9 L of purified water; • b) adjustment the pH of the buffer: adjust the pH of the buffer to 6.5 with 1 N NaOH or 1 N HCL, and replenish the buffer with purified water to the volume of 1 L; and • c) preparation of FaSSIF solution by addition of FaSSIF powder: add 2.24 g of the FaSSIF powder to about 0.5 L of the buffer, stir until the powder was completely dissolved, and make up for the volume (1 L) with the buffer.
2). Preparation of the Solution of Control Compound:
The control compound was weighed and dissolved in DMSO to 10 mM to obtain a stock solution.
3) Preparation of the Solution of Compound to be Tested:
The compound to be tested was formulated into a 10 mM DMSO stock solution.
4) Preparation of Internal Standard Solution:
a) The internal standard was weighed and dissolved in DMSO to 10 mM to obtain an internal standard stock solution (ISTD stock solution).
b) The internal standard stock solution was diluted to 500 nM (Tolbutamide) with an ACN:methano mixture (volume ratio: 1:1) to obtain a quenching solution.
a) The FaSSGF solution at pH 1.6 and the FaSSIF solution at pH 6.5 were pre-warmed; and then, the compound was injected into the buffer.
Once done, the samples were centrifuged at 12,000 rpm for 10 min, and the supernatant was transferred to a new tube. The supernatant was diluted 10-fold and 100-fold with the FaSSGF solution at pH 1.6 or the FaSSIIF solution at pH 6.5. 20 μL of each sample (1×, 10×, 100× and standard curve) was added to 500 μL of the IS solution. The resulting mixture was vortexed vigorously for 1 min and centrifuged at 4,500 rpm for 15 min at 4° C. 150 μL of the supernatant was transferred for LC-MS/MS sample analysis.

Mouse PK assay = assay type: in vivo; conditions: CD1 mice, oral administration, 30 mg/kg, plasma; for bioavailability / half-life / MRT: mouse; for half-life: read-out: Half-life period (converted); for MRT: read-out: Mean residence time
Procedure: The goal of this assay was to study the pharmacokinetics of the test compound on CD1 mice (6-8 weeks old, Zhejiang Vegavit Bio-technology Co., Ltd.) after oral administration. The specific experimental procedures were as follows: • 1) the compound was dissolved in 8% DMSO+72% PEG 400+20% ([…]); and • 2) blood samples were collected, with 0.03 mL collected at 0.25 h, 0.5 h, 1 h, 2 h, 4 h, 8 h, and 24 h, and EDTA-K2 was added. CD1 mice: Approximately 0.03 mL of blood was collected at each time point. The blood was centrifuged for 5 min at 4000 g in a centrifuge at 4° C. to collect plasma. Plasma samples were aliquoted into clean polyethylene microcentrifuge tubes and then stored in a freezer at −75±15° C. before analysis; and • 3) samples were analyzed, and the concentration of the compound in each plasma sample was analyzed with LC-MS/MS. For plasma measurements, pharmacokinetic parameters were calculated using WinNonlin (Phoenix™, version 8.3) or other similar software.

HCC1806 = assay: Cell viability assay (CellTiter-Glo); assay type: cell-based, Human; conditions: HCC1806, 7 days, CellTiter-Glo, read-out: IC50 (nM) in cell viability assay
[2] = fassgf or other biorelevant, FaSSGF solution pH 1.6, 100 μM from DMSO stock, read-out: FaSSGF solubility
[3] = FaSSIF solution pH 6.5, 100 μM from DMSO stock, read-out: FaSSIF solubility

SMILES	solubility at 2 h [1, 2] [µM]	solubility at 2 h [1, 3] [µM]	Area under the curve (0-last; hr*ng/mL) (Mouse PK assay) [ng·h/mL]	Peak concentration (Mouse PK assay) [ng/mL]	Time to peak (Mouse PK assay) [h]	bioavailability (Mouse PK assay) [%]	half-life (Mouse PK assay) [h]	MRT (Mouse PK assay) [h]	IC50 (HCC1806) [nM]	IC50 (HCC1806; Homo sapiens, HCC1806, 168 h) [nM]
CC(C)C(=O)N1CCN(c2cc(S(=O)(=O)NC3(C#N)CC3)cn3c(-c4nnc(C(F)F)s4)ncc23)CC1 [Example 32, N-(1-cyanocyclopropyl)-3-(5-(difluoromethyl)-1,3,4-thiadiazol-2-yl)-8-(4-isobutyrylpiperazin-1-yl)imidazo[1,5-a]pyridine-6-sulfonamide]	0.9 (≈ 0.496 µg/mL)	3.18 (≈ 1.75 µg/mL)	13174	5317	0.333	47	1.31	1.92	–	–
CC(C)C(=O)N1CCN(c2cc(S(=O)(=O)NC3(C#N)CC3)cn3c(-c4nnc(C(F)(F)F)s4)ncc23)CC1 [Example 167, N-(1-cyanocyclopropyl)-8-(4-isobutyrylpiperazin-1-yl)-3-(5-(trifluoromethyl)-1,3,4-thiadiazol-2-yl)imidazo[1,5-a]pyridine-6-sulfonamide]	57.5 (≈ 32.7 µg/mL)	96.5 (≈ 54.9 µg/mL)	29273	4087	1.67	85	2.75	4.81	290	< 500
